Where two headings read alike, the source gives them in different places.
System: SMN2-linked luciferase-reporter gene construct
Assay: SMN splice reporter assay (SMN2-linked luciferase reporter, Example 10)
Type: cell-based
Text: Cervical carcinoma cell lines were transformed with a SMN2-linked luciferase-reporter gene construct. The reporter is designed to detect shifts in the alternative splicing of SMN2 sequences. In particular, the reporter is constructed as a fusion of the alternatively spliced sequences of the SMN2 gene and the luciferase gene. Luciferase sequences are in the correct translational reading frame only when the SMN2 sequences are spliced according to the normal SMN1 mechanism (e.g., splicing to include exon 7), which allows for translation of the stable SMN protein. Compounds were tested in the assay by administering the compound to the cell line and detecting an increase in the luciferase activity. The assay is described in greater detail in Zhang et al., Gene Ther., 8, 1532-8 (2001). Compounds were administered as described in Lunn et al, Chem. & Biol, 11, 1489-1493 (2004).
The results are reported as a fold-increase over a baseline reading of transformed cells without any test compound.

[1] = SMN2-linked luciferase reporter, average
[2] = SMN2-linked luciferase reporter, average maximum fold increase, read-out: SMN Splice Reporter Assay (Example 10) Avg MaxFold Increase
[3] = maximum fold increase of reporter signal, average, read-out: SMN Splice Reporter Assay (Example 10) Avg MaxFold Increase

SMILES	EC50 [1] [nM]	maximal fold induction [2]	maximal fold induction [3]	maximal fold induction (read-out: SMN Splice Reporter Assay (Example 10) Avg MaxFold Increase, maximum fold increase of reporter signal, average, heading: SMN Splice Reporter Assay Avg MaxFold Increase)
CCCCCc1ccc2c(c1)CN(c1ccc(C(C)C(=O)O)cc1)C2=O (stereo not drawn) [ALB-113491]	–	–	1.12	–
CC(C(=O)NS(=O)(=O)N(C)C)c1ccc(N2Cc3ccccc3C2=O)cc1 (stereo not drawn) [ALB-111749]	14000	–	1.16	–
CC(C(=O)OC(C)(C)C)c1ccc(N2Cc3ncccc3C2=O)cc1 (stereo not drawn) [ALB-112087]	–	–	1.05	–
COc1cc2c(cc1OC)C(=O)N(c1ccc(C(C)C(=O)O)cc1)C2 (stereo not drawn) [ALB-114437]	–	–	1.2	–
CC(C(=O)OC(C)(C)C)c1ccc(N2Cc3ccccc3C2=O)c(-c2ccc(Cl)c(Cl)c2)c1 (stereo not drawn) [ALB-112080]	–	–	1.03	–
COc1ccc(-c2cc(N3Cc4ccccc4C3=O)ccc2C(C)C(=O)OC(C)(C)C)cc1 (stereo not drawn) [ALB-112001]	–	–	1.02	–
CC(C)c1ccc(N2Cc3cc(N(C)C)ccc3C2=O)cc1 [ALB-117752]	42	–	1.38	–
CC(C(=O)OC(C)(C)C)c1ccc(N2Cc3ccccc3C2=O)cc1C#N (stereo not drawn) [ALB-112435]	5980	–	1.2	–
O=C(O)Cc1ccc(N2Cc3ccccc3C2=O)cc1 [ALB-112235]	–	–	0.941	–
CC(C)c1ccc(N2Cc3cccc(I)c3C2=O)cc1 [ALB-117753]	183	–	1.6	–
CCCc1ccc(N2Cc3ccc(C)cc3C2=O)cc1 [ALB-116071]	16	–	1.35	–
O=C1c2ccccc2CN1c1ccc(C2(C(=O)O)CC2)cc1 [ALB-112434]	–	–	1.28	–
CC(C)c1ccc(N2Cc3cccc(Br)c3C2=O)cc1 [ALB-115801]	144	–	1.45	–
CC(C(=O)OC(C)(C)C)c1ccc(N2Cc3c(C#N)cccc3C2=O)cc1 (stereo not drawn) [ALB-112350]	–	–	1.18	–
CCN(C)C(=O)Nc1ccc2c(c1)C(=O)N(c1ccc(C(C)C)cc1)C2 [ALB-118732]	–	1.15	–	–
CC(C(=O)OC(C)(C)C)c1ccc(N2Cc3ccc(-c4ccc(Cl)cc4)cc3C2=O)cc1 (stereo not drawn) [ALB-112443]	–	–	1.07	–
CC(C(=O)O)c1ccc(N2Cc3ccc(OCc4ccccc4)cc3C2=O)cc1 (stereo not drawn) [ALB-115326]	–	–	1.24	–
CC(C(=O)OC(C)(C)C)c1ccc(N2Cc3ccc(NS(=O)(=O)c4ccc(Cl)cc4)cc3C2=O)cc1 (stereo not drawn) [ALB-112070]	–	–	1.11	–
CC(C(=O)O)c1ccc(N2Cc3ccccc3C2=O)cc1-c1cccnc1 (stereo not drawn) [ALB-112199]	–	–	1.08	–
Cc1ccc(-c2cccc3c2C(=O)N(c2ccc(C(C)C(=O)OC(C)(C)C)cc2)C3)cc1 (stereo not drawn) [ALB-112151]	–	–	1.11	–
CC(C(=O)O)c1ccc(N2CC3=C(CCCC3)C2=O)cc1 (stereo not drawn) [ALB-112951]	279	–	1.79	–
CC(C(=O)OC(C)(C)C)c1ccc(N2Cc3ccc(N(C)C(=O)c4ccc(Cl)cc4)cc3C2=O)cc1 (stereo not drawn) [ALB-112167]	–	–	1.01	–
COc1ccc(-c2cc(C(C)C(=O)OC(C)(C)C)ccc2N2Cc3ccccc3C2=O)cc1 (stereo not drawn) [ALB-112082]	–	–	1.12	–

SMILES	EC50 [1] [nM]	maximal fold induction [2]	maximal fold induction [3]	maximal fold induction (read-out: SMN Splice Reporter Assay (Example 10) Avg MaxFold Increase, maximum fold increase of reporter signal, average, heading: SMN Splice Reporter Assay Avg MaxFold Increase)
CC(C(=O)O)c1ccc(N2Cc3cccc(C#N)c3C2=O)cc1 (stereo not drawn) [ALB-112518]	–	–	1.12	–
COc1ccc2c(c1)C(=O)N(c1ccc(C3CCCCC3)cc1)C2 [ALB-115496]	556	–	1.39	–
CC(=O)c1cccc2c1C(=O)N(c1ccc(C(C)C(=O)O)cc1)C2 (stereo not drawn) [ALB-113496]	–	–	1.18	–
CC(C)c1ccc(N2Cc3ccc(NC(=O)N(C)C(C)C)cc3C2=O)cc1 [ALB-118899]	–	1.08	–	–
CC(C(=O)OC(C)(C)C)c1ccc(N2Cc3ccccc3C2=O)c(-c2ccc(Cl)cc2)c1 (stereo not drawn) [ALB-112162]	–	–	1.03	–
CC(C(=O)OC(C)(C)C)c1ccc(N2Cc3ccc(C#N)cc3C2=O)cc1 (stereo not drawn) [ALB-112445]	–	–	1.13	–
CC(C)OCC(C)c1ccc(N2Cc3ccccc3C2=O)cc1 (stereo not drawn) [ALB-114935]	977	–	1.26	–
O=C1c2ccccc2CN1c1ccc(C2CCCC2)cc1 [ALB-115068]	53	–	1.41	–
CC(C)c1ccc(N2Cc3ccc4c(c3C2=O)OCO4)cc1 [ALB-117751]	27	1.34	–	–
CC(C(=O)OC(C)(C)C)c1ccc(N2Cc3ccc(Nc4ccc(Cl)cc4)cc3C2=O)cc1 (stereo not drawn) [ALB-112166]	–	–	1.04	–
CC(C(=O)O)c1ccc(N2Cc3ccccc3C2=O)c(-c2cncnc2)c1 (stereo not drawn) [ALB-112231]	–	–	1.08	–
Cc1ccc(N2Cc3cc4c(cc3C2=O)OCCO4)cc1 [ALB-116363]	24	1.54	–	–
Cc1ccc(-c2cccc3c2CN(c2ccc(C(C)C(=O)O)cc2)C3=O)cc1 (stereo not drawn) [ALB-112221]	–	–	1.33	–
Cc1ccc(N2Cc3ccccc3C2=O)cc1 [ALB-114898]	302	–	1.36	–
CC(C)C(=O)Nc1ccc2c(c1)C(=O)N(c1ccc(C(C)C(=O)OC(C)(C)C)cc1)C2 (stereo not drawn) [ALB-111989]	–	–	1.06	–
COCCc1ccc(N2Cc3ccccc3C2=O)cc1 [ALB-115073]	–	–	1.19	–
CNc1cccc2c1C(=O)N(c1ccc(C(C)C)cc1)C2 [ALB-117905]	414	–	1.55	–
CC(=O)c1ccc(N2Cc3ccccc3C2=O)cc1 [ALB-112360]	424	–	1.14	–
COCCc1ccc(N2Cc3ccc(OC)cc3C2=O)cc1 [ALB-115217]	–	–	1.26	–
Cc1ccc2c(c1)C(=O)N(c1ccc(C3CCCCC3)cc1)C2 [ALB-115717]	–	–	1.06	–
COCC(C)c1ccc(N2Cc3ccc(CC(C)C)cc3C2=O)cc1 (stereo not drawn) [ALB-115976]	179	–	1.29	–
CC(C(=O)O)c1ccc(N2Cc3c(cccc3-c3cccnc3)C2=O)cc1 (stereo not drawn) [ALB-112224]	–	–	1.3	–

Second part, led by results:

EC50 [1] [nM]	SMILES	maximal fold induction [2]	maximal fold induction [3]	maximal fold induction (read-out: SMN Splice Reporter Assay (Example 10) Avg MaxFold Increase, maximum fold increase of reporter signal, average, heading: SMN Splice Reporter Assay Avg MaxFold Increase)
155	CC(C)=Cc1ccc2c(c1)C(=O)N(c1ccc(C(C)C)cc1)C2 [ALB-115807]	1.3	–	–
203	CC(=O)Nc1ccc2c(c1)C(=O)N(c1ccc(C(C)C)cc1)C2 [ALB-118157]	1.51	–	–
130	CC(C(=O)O)c1ccc(N2Cc3ccc(Br)cc3C2=O)cc1 (stereo not drawn) [ALB-112352]	–	–	1.12
1900	CC(C(=O)O)c1ccc(N2Cc3ccc(CN4CCOCC4)cc3C2=O)cc1 (stereo not drawn) [ALB-114438]	–	1.27	–
103	CCc1ccc2c(c1)C(=O)N(c1ccc(C(C)C(=O)O)cc1)C2 (stereo not drawn) [ALB-113212]	–	1.87	–
544	CC(C(=O)O)c1ccc(N2Cc3ccc(F)cc3C2=O)cc1 (stereo not drawn) [ALB-113836]	–	1.78	–
1250	CC(C(=O)O)c1ccc(N2Cc3ccccc3C2=O)c(Br)c1 (stereo not drawn) [ALB-112004]	–	1.08	–
5220	CC(C(=O)OC(C)(C)C)c1ccc(N2Cc3cc(N)ccc3C2=O)cc1 (stereo not drawn) [ALB-111949]	–	1.29	–
88	C/C=C/c1ccc2c(c1)C(=O)N(c1ccc(C(C)C(=O)O)cc1)C2 (stereo not drawn) [ALB-114086]	–	1.99	–
786	CCc1ccc2c(c1)C(=O)N(c1ccc(C(C)C(=O)OC(C)(C)C)cc1)C2 (stereo not drawn) [ALB-113211]	–	1.37	–
13	CC(C)Cc1ccc2c(c1)C(=O)N(c1ccc(C(C)C(=O)O)cc1)C2 (stereo not drawn) [ALB-115426]	–	1.96	–
854	CC(C)c1ccc(N2Cc3ccc(NC(=O)N(C)C)cc3C2=O)cc1 [ALB-118731]	1.2	–	–
62	CCOc1ccc2c(c1)C(=O)N(c1ccc(C(C)C(=O)O)cc1)C2 (stereo not drawn) [ALB-113102]	–	1.83	–
146	Cc1ccc2c(c1)CN(c1ccc(C(C)C(=O)O)cc1)C2=O (stereo not drawn) [ALB-112556]	–	1.56	–
902	C/C=C\c1ccc2c(c1)C(=O)N(c1ccc(C(C)COC)cc1)C2 (stereo not drawn) [ALB-114089]	–	1.55	–
29	CC(C(=O)O)c1ccc(N2Cc3ccc(C4CC4)cc3C2=O)cc1 (stereo not drawn) [ALB-115716]	–	1.59	–
4860	CC(C)Oc1cccc2c1C(=O)N(c1ccc(C(C)C(=O)O)cc1)C2 (stereo not drawn) [ALB-113392]	–	1.65	–
101	C=Cc1ccc2c(c1)CN(c1ccc(C(C)C(=O)OC(C)(C)C)cc1)C2=O (stereo not drawn) [ALB-113100]	–	1.05	–
209	C=Cc1cccc2c1C(=O)N(c1ccc(C(C)C(=O)O)cc1)C2 (stereo not drawn) [ALB-113393]	–	1.21	–
13900	CC(C(=O)O)c1ccc(N2Cc3c(Cl)cccc3C2=O)cc1 (stereo not drawn) [ALB-111763]	–	1.17	–
288	Cc1cccc2c1C(=O)N(c1ccc(C(C)C(=O)O)cc1)C2 (stereo not drawn) [ALB-112557]	–	1.73	–
42	CCOCc1ccc2c(c1)C(=O)N(c1ccc(C(C)C(=O)O)cc1)C2 (stereo not drawn) [ALB-114742]	–	1.58	–
269	CC(=O)N(C)c1ccc2c(c1)C(=O)N(c1ccc(C(C)C)cc1)C2 [ALB-117047]	1.39	–	–
3740	C/C=C\c1ccc2c(c1)C(=O)N(c1ccc(C(C)C(=O)OC(C)(C)C)cc1)C2 (stereo not drawn) [ALB-113000]	–	1.31	–
2880	C=Cc1ccc2c(c1)C(=O)N(c1ccc(C(C)C(=O)OC(C)(C)C)cc1)C2 (stereo not drawn) [ALB-113210]	–	1.15	–

— patent publication US8110681B2, “Compounds for the treatment of spinal muscular atrophy and other uses” (The United States of America as represented by the …, priority 2006, dated 2012)
